Among the data in patent publication US10383861B2, “3-(1H-pyrrolo[2,3-C]pyridin-2-yl)-1H-pyrazolo[3,4-C]pyridines and therapeutic uses thereof” (Samumed, LLC, priority 2015, dated 2019) are EC50, Emax and inhibition values, retold here.

Assay type in all cases: cell-based
The subject of one experiment is Wnt activity. The experiment can be described thus: Wnt activity screening assay, Sp5-Luc reporter gene in SW480 cells. The conditions noted are these: Homo sapiens; for EC50: Sp5-Luc reporter, SW480 cells, overnight incubation; for inhibition at 10 µM: SW480, read-out: percent inhibition at 10 μM. The source says: The screening assay for Wnt activity is described as follows. Reporter cell lines can be generated by stably transducing cancer cell lines (e.g., colon cancer) or primary cells (e.g., IEC-6 intestinal cells) with a lentiviral construct that includes a Wnt-responsive promoter driving expression of the firefly luciferase gene.
SW480 colon carcinoma cells were transduced with a lentiviral vector expressing luciferase with a human Sp5 promoter consisting of a sequence of eight TCF/LEF binding sites. SW480 cells stably expressing the Sp5-Luc reporter gene and a hygromycin resistance gene were selected by treatment with 150 μg/mL of hygromycin for 7 days. These stably transduced SW480 cells were expanded in cell culture and used for all further screening activities. […] For Sp5-Luc reporter gene assays, the cells were plated at 4,000 cells/well in 384-well plates with medium containing 1% fetal bovine serum and incubated overnight at 37° C. and 5% CO2. Following incubation, 20 μl of BrightGlo luminescence reagent (Promega) was added to each well of the 384-well assay plates. The plates were placed on an orbital shaker for 2 min and then luminescence was quantified using the Envision (Perkin Elmer) plate reader. Readings were normalized to DMSO only treated cells, and normalized activities were utilized for EC50 calculations using the dose-response log (inhibitor) vs. response -variable slope (four parameters) nonlinear regression feature available in GraphPad Prism 5.0 (or Dotmatics).
(In a reporter assay the amount or activity of a reporter protein is the signal.)

A further experiment deals with SW480 colon cancer cells. The experiment can be described thus: Cell viability assay (CellTiter-Blue) in SW480 colon cancer cells. The conditions noted are these: Homo sapiens; for EC50: 96 h, SW480 cell viability, four days, CellTiter-Blue; for inhibition at 10 µM: SW480, read-out: percent inhibition at 10 μM. How it is done: Representative compounds were screened using the following assay procedure to assess the effect on cell viability as described below.
Approximately 2×10^3 SW480 colon cancer cells were seeded into each well and allowed to incubate in the presence or absence of compound for four days at 37° C./5% CO2. Eight replicates of DMSO-treated cells served as controls and cells treated with compound were performed in duplicate.
After incubation, 20 μL of CellTiter-Blue (Promega) was added to each well allowed to incubate for approximately 3 hours. This reagent was a buffered solution which contains resazurin, metabolically active cells were able to reduce rezarurin (blue) into resorufin (pink) which was highly fluorescent. This measured fluorescence was used as a readout for cell viability.
(In general: Resazurin is reduced to fluorescent resorufin, in cell work by metabolically active cells.)

Experiment [1] deals with primary human fibroblasts derived from IPF patients (LL29 cells). Nature of the experiment: Inhibition of the fibrotic process: αSMA staining in TGF-β1 treated LL29 fibroblasts. The conditions noted are these: Fibroblast; for EC50: 96 h, LL29 cells, TGF-β1 20 ng/mL, 4 days, % αSMA positive cells; for inhibition at 10 µM: read-out: percent inhibition at 10 μM. How it is done:
Representative compounds were screened using primary human fibroblasts (derived from IPF patients) treated with TGF-β1 to determine their ability to inhibit the fibrotic process.
LL29 cells are plated at 1,500 cells/well in 80 μL/well F12 medium supplemented with 1% Fetal Bovine Serum. […] Wells treated with TGF-β1 and containing DMSO were used as controls. […] Following incubation for 4 days, SYTOX green nucleic acid stain (Life Technologies [Thermo Fisher Scientific]) was added to the wells at a final concentration of 1 μM and incubated at room temperature for 30 min.

Experiment [2] concerns primary human mesenchymal stem cells (hMSCs). The experiment can be described thus: Induction of chondrogenesis in hMSCs (nodule count, Rhodamine B/Nile Red). Particulars: 6 days; for Emax: relative to TGF-β3 (10 ng/mL) positive control, read-out: Max. Activity as % TGF-β3 activity. From the text:
Representative compounds were screened using primary human mesenchymal stem cells (hMSCs) to determine their ability to induce chondrogenesis (process by which cartilage is developed).
Primary human mesenchymal stem cells (hMSCs) were purchased from Lonza (Walkersville, Md.) and expanded in Mesenchymal Stem Cell Growth Media (Lonza). Cells between passage 3 and 6 were used for the experiments.
To image chondrogenic nodules, the cells were fixed using 4% formaldehyde (Electron Microscopy Sciences), and stained with 2 μg/mL Rhodamine B (Sigma-Aldrich) and 20 μM Nile Red (Sigma-Aldrich) [Johnson K., et.al, A Stem Cell-Based Approach to Cartilage Repair, Science, (2012). […] Number of nodules in each well was normalized to the average of 3 DMSO treated wells on the same plate using Excel (Microsoft Inc.). The normalized averages (fold change over DMSO) of 3 replicate wells for each compound concentration were calculated. Due to solubility limitations of some of the compounds, curve fitting was incomplete leading to inaccurate EC50 determinations.
Using TGF-β3 as a positive control, the concentration of representative compounds required to induce 50% levels of chondrogenesis is reported. In addition, the maximum activity of each compound and the respective dose that each compound reached maximum chondrogenesis activity is reported.

The subject of a further experiment is IL-6. The experiment can be described thus: IL-6 inhibition in LPS-stimulated THP-1 cells (HTRF). Particulars: Homo sapiens; for inhibition at 10 µM: THP-1, read-out: percent inhibition at 10 μM; for EC50: THP-1 cells, LPS 500 ng/mL, 22 hours, IL6 HTRF. On the procedure:
THP-1 cells were cultured in basal media with 1% FBS for 24 hours before the start of the assay. […] THP-1 cells were plated at 5000 cells/well in the 384-well plates and incubated at 37° C. for 2 h. 500 ng/mL of LPS was added after 2 hours and cells were incubated for another 22 hours at 37° C. Plates were spun in a centrifuge for 1 minute at […] and a mixture of anti-IL6 XL665, and anti-IL6 Cryptate diluted in reconstitution buffer (Cisbio Inc.) was added to each well. Following incubation for 3 hrs at room temperature, Homogeneous Time-Resolved Fluorescence (HTRF) was measured using the Envision (Perkin Elmer) at 665 nm and […]. The ratio of fluorescence at 665 nm to 620 nm was used as a readout for IL6 quantification. All samples were processed in duplicate. Readings were normalized to DMSO treated cells and normalized activities were utilized for EC50 calculations using the dose-response log (inhibitor) vs. response -variable slope (four parameters) nonlinear regression feature available in GraphPad Prism 5.0 (or Dotmatics).

On to `Fc1cccc(-c2cncc3[nH]c(-c4n[nH]c5cnc(-c6cccnc6)cc45)cc23)c1` [Compound 4, 3-(4-(3-Fluorophenyl)-1H-pyrrolo[2,3-c]pyridin-2-yl)-5-(pyridin-3-yl)-1H-pyrazolo[3,4-c]pyridine], for which the EC50 is 890 nM in the experiment with Wnt activity; 734 nM with SW480 colon cancer cells; 211 nM in experiment [1]; 2700 nM in experiment [2] (concentration required to induce 50% levels of chondrogenesis vs TGF-β3, read-out: Conc (nM) of 50% TGF-β3 activity); more than 10000 nM in the experiment on IL-6. In addition, the Emax in experiment [2] turned out to be 64%. The inhibition – broadly, the relative decrease from the control value, in per cent – at 10 µM in the experiment with IL-6 was 26.8%.
With `CC(C)C(=O)Nc1cncc(-c2cc3c(-c4cc5c(-c6cccc(F)c6)cncc5[nH]4)n[nH]c3cn2)c1` [Compound 9, N-(5-(3-(4-(3-Fluorophenyl)-1H-pyrrolo[2,3-c]pyridin-2-yl)-1H-pyrazolo[3,4-c]pyridin-5-yl)pyridin-3-yl)isobutyramide], the EC50 in the experiment on Wnt activity was 1820 nM; in the experiment with SW480 colon cancer cells, 4340 nM; in experiment [1], 1790 nM; in the experiment on IL-6 it was 8260 nM. In addition, the Emax in experiment [2] was determined as 42%.
With `FC1(F)CCN(Cc2cncc(-c3cc4c(-c5cc6c(-c7cccs7)cncc6[nH]5)n[nH]c4cn3)c2)C1` [Compound 362, 5-(5-((3,3-Difluoropyrrolidin-1-yl)methyl)pyridin-3-yl)-3-(4-(thiophen-2-yl)-1H-pyrrolo[2,3-c]pyridin-2-yl)-1H-pyrazolo[3,4-c]pyridine], the EC50 in the experiment with Wnt activity was found to be 5240 nM; in the experiment on SW480 colon cancer cells, 4100 nM; in experiment [1], 1160 nM; in the experiment on IL-6 it was 1320 nM.
Take `CC(C)(C)CC(=O)Nc1cncc(-c2cc3c(-c4cc5c(-c6cc(F)cc(CNS(C)(=O)=O)c6)cncc5[nH]4)n[nH]c3cn2)c1` [Compound 492, N-(5-(3-(4-(3-Fluoro-5-(methylsulfonamidomethyl)phenyl)-1H-pyrrolo[2,3-c]pyridin-2-yl)-1H-pyrazolo[3,4-c]pyridin-5-yl)pyridin-3-yl)-3,3-dimethylbutanamide]: the inhibition at 10 µM in the experiment on Wnt activity was 14.6%; in the experiment with SW480 colon cancer cells, 16.3%; in experiment [1], 0%; in the experiment on IL-6, 29%. In addition, the EC50 (in the experiment with Wnt activity; with SW480 colon cancer cells; in experiment [1]; in the experiment with IL-6) was more than 10000 nM throughout.
Turning to `CS(=O)(=O)NCc1cc(F)cc(-c2cncc3[nH]c(-c4n[nH]c5cnc(-c6cncc(NC(=O)C7CCCCC7)c6)cc45)cc23)c1` [Compound 499, N-(5-(3-(4-(3-Fluoro-5-(methylsulfonamidomethyl)phenyl)-1H-pyrrolo[2,3-c]pyridin-2-yl)-1H-pyrazolo[3,4-c]pyridin-5-yl)pyridin-3-yl)cyclohexanecarboxamide], the inhibition at 10 µM with Wnt activity came out at 11.3%; in the experiment on SW480 colon cancer cells it was 15.5%; in experiment [1], 0%; in the experiment with IL-6 it was 36.6%. Also, the EC50 (with Wnt activity; in the experiment on SW480 colon cancer cells; in experiment [1]; with IL-6) was more than 10000 nM in each case.
In the case of `CS(=O)(=O)NCc1cc(F)cc(-c2cncc3[nH]c(-c4n[nH]c5cnc(-c6ccccn6)cc45)cc23)c1` [Compound 504, N-(3-Fluoro-5-(2-(5-(pyridin-2-yl)-1H-pyrazolo[3,4-c]pyridin-3-yl)-1H-pyrrolo[2,3-c]pyridin-4-yl)benzyl)methanesulfonamide], the EC50 in the experiment on Wnt activity was 2380 nM; in the experiment on SW480 colon cancer cells it was 2980 nM; in experiment [1], 2010 nM; with IL-6 it was 943 nM.
For the molecule `Fc1ccccc1-c1cncc2[nH]c(-c3n[nH]c4cnc(-c5cn[nH]c5)cc34)cc12` [Compound 539, 3-(4-(2-Fluorophenyl)-1H-pyrrolo[2,3-c]pyridin-2-yl)-5-(1H-pyrazol-4-yl)-1H-pyrazolo[3,4-c]pyridine], the inhibition at 10 µM in the experiment on Wnt activity is 8.6%; with SW480 colon cancer cells, 3.6%; in the experiment with IL-6 it was 0%. In addition, the EC50 in the experiment with Wnt activity is more than 10000 nM; in the experiment with SW480 colon cancer cells, more than 10000 nM; in experiment [1], 2430 nM; in the experiment on IL-6, more than 10000 nM.
Turning to `c1cncc(-c2cncc3[nH]c(-c4n[nH]c5cnc(C6CCNCC6)cc45)cc23)c1` [Compound 553, 5-(Piperidin-4-yl)-3-(4-(pyridin-3-yl)-1H-pyrrolo[2,3-c]pyridin-2-yl)-1H-pyrazolo[3,4-c]pyridine], the results for the inhibition at 10 µM with Wnt activity, in the experiment on SW480 colon cancer cells and with IL-6 were 8.3%, 11% and 18.1%, respectively. Further, the EC50 in the experiment on Wnt activity was more than 10000 nM; in the experiment on SW480 colon cancer cells, more than 10000 nM; in experiment [1] it was 1190 nM; with IL-6 it was more than 10000 nM.
As to `c1ncc(-c2cc3c(-c4cc5c(N6CCCCC6)cncc5[nH]4)n[nH]c3cn2)cc1OC1CCCCC1` [Compound 607, 5-(5-(Cyclohexyloxy)pyridin-3-yl)-3-(4-(piperidin-1-yl)-1H-pyrrolo[2,3-c]pyridin-2-yl)-1H-pyrazolo[3,4-c]pyridine], the EC50 with Wnt activity was 1340 nM; in the experiment on SW480 colon cancer cells, 1300 nM; in experiment [1] it was 532 nM; in the experiment on IL-6 it was 3170 nM.
As for `CN(C)CCOc1cncc(-c2cc3c(-c4cc5c(-c6cccs6)cncc5[nH]4)n[nH]c3cn2)c1` [Compound 707, N,N-Dimethyl-2-((5-(3-(4-(thiophen-2-yl)-1H-pyrrolo[2,3-c]pyridin-2-yl)-1H-pyrazolo[3,4-c]pyridin-5-yl)pyridin-3-yl)oxy)ethan-1-amine], the inhibition at 10 µM was 5% in the experiment on Wnt activity, 0% in the experiment with SW480 colon cancer cells and 41.3% in the experiment on IL-6. For the same molecule, the EC50 is more than 10000 nM with Wnt activity, more than 10000 nM in the experiment with SW480 colon cancer cells, 5100 nM in experiment [1] and more than 10000 nM in the experiment with IL-6.
In the case of `Cn1cc(-c2cc3c(-c4cc5c(-c6cc(F)cc(CNS(C)(=O)=O)c6)cncc5[nH]4)n[nH]c3cn2)cn1` [Compound 764, N-(3-Fluoro-5-(2-(5-(1-methyl-1H-pyrazol-4-yl)-1H-pyrazolo[3,4-c]pyridin-3-yl)-1H-pyrrolo[2,3-c]pyridin-4-yl)benzyl)methanesulfonamide], the EC50 in the experiment with Wnt activity was 1030 nM; in the experiment with SW480 colon cancer cells it was more than 10000 nM; in experiment [1], 2420 nM; in the experiment with IL-6 it was more than 10000 nM. In addition, the inhibition at 10 µM with SW480 colon cancer cells worked out at 9.3%; with IL-6, 20%.
